What is called IC50 is the concentration at which inhibition is half-maximal. Read a low IC50 as higher potency.

One experiment addresses T1, TNKS1 (Homo sapiens, UniProt O95271).
T1 sequence (O95271 1-1327): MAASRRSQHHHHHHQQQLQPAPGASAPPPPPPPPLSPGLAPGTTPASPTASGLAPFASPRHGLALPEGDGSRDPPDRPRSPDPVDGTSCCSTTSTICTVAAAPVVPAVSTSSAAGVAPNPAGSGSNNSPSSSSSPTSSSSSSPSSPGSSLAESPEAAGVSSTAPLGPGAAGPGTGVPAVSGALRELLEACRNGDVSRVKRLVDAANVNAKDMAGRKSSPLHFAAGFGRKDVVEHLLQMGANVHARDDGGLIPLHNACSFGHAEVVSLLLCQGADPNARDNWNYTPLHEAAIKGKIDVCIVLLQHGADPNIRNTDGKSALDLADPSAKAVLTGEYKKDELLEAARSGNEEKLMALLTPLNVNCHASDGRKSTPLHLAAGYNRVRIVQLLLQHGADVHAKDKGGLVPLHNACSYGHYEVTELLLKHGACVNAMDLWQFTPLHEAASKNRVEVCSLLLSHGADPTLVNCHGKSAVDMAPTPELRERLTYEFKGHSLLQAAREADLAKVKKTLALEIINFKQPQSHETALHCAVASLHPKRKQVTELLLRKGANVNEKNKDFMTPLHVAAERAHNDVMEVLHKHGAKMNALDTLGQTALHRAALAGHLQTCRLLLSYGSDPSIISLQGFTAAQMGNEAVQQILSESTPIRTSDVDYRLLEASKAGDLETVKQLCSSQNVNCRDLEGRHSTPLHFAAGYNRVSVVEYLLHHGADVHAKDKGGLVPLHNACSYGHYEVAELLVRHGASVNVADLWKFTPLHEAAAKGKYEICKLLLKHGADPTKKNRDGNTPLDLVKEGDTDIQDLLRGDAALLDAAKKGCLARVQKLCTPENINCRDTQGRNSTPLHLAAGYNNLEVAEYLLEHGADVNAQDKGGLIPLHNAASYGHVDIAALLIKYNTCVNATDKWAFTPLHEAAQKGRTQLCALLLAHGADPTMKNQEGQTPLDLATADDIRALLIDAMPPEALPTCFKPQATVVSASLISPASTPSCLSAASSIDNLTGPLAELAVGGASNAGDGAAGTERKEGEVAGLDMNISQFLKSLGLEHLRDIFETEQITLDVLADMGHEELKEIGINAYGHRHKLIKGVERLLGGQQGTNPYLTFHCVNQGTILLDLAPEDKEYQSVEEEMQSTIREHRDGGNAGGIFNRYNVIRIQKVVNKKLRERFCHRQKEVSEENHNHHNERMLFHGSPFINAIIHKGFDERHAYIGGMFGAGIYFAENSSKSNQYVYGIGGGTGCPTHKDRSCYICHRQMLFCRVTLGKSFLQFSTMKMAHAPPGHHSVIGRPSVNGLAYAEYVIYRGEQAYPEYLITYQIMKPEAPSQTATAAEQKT
Kind of experiment: Modified TNKS1 Assay 3 (BPS kit #80573, biotin-NAD+, 96 well). As to conditions: human TNKS1, BPS kit #80573, 96 well. Format: biochemical. Summed up:
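Chemiluminescent assay of TNKS1-catalysed ribosylation of a protein substrate with biotin-labelled NAD+, detected via streptavidin-HRP; run per kit protocol. Inhibition lowers the signal, and IC50 is the compound concentration halving the normalised readout.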

Experiment [1] has as its system wildtype Wnt signaling cascade. Kind of experiment: HEK293 TOP Assay (Super TopFlash luciferase reporter, Wnt-3a stimulated). In kind it is cell-based. As to conditions: Homo sapiens, HEK293, 16 h, HEK293 TOP reporter cell line, Wnt-3a at EC50, 16 hours incubation, compound dilution series 50 μM to 15 nM. Summed up:
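Compounds (50 μM down to 15 nM, 3.16-fold steps, in CAFTY buffer pH 7.4, 2 mM Ca2+, 0.01% BSA) tested in parallel on TOP and FOP HEK293 reporter lines to define selective wildtype Wnt inhibition. Pathway driven by recombinant human Wnt-3a applied at 2500–5 ng/ml in two-fold dilutions.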

The test system of experiment [2] is HEK293 FOP control reporter cell line. Kind of experiment: HEK293 FOP Assay (FOP control vector luciferase reporter). In kind it is cell-based. As to conditions: Homo sapiens; HEK293 FOP control reporter cell line, 16 hours incubation, compound dilution series 50 μM to 15 nM. Summed up:
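Compound series 50 μM to 15 nM, 3.16-fold steps, were diluted in CAFTY buffer (pH 7.4, 2 mM Ca2+, 0.01% BSA) and tested alongside the TOP reporter line. Human Wnt-3a was added at 2500–5 ng/ml in two-fold steps. The control HEK293 line stably holds an FOP vector whose TCF elements are randomized and non-functional.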
For orientation: A reporter such as luciferase makes a cellular process visible.

Turning to `O=C(Nc1ccc(NC(=O)c2[nH]cnc2C(=O)NCCN2CCCCC2)cc1)c1cc(OC(F)(F)F)ccc1Br` [Example 63, N^5-(4-{[2-bromo-5-(trifluoromethoxy)benzoyl]amino}phenyl)-N^4-[2-(piperidin-1-yl)ethyl]-1H-imidazole-4,5-dicarboxamide], the IC50 at TNKS1 stood at 70 nM; in experiment [1], 110 nM; in experiment [2], 11000 nM.
Taken in the same sequence, the figures for `O=C(Nc1ccc(NC(=O)c2nc[nH]c2C(=O)NCCN2CCC(F)CC2)cc1)c1ccc(F)cc1Cl` [Example 230, N^4-{4-[(2-chloro-4-fluorobenzoyl)amino]phenyl}-N^5-[2-(4-fluoropiperidin-1-yl)ethyl]-1H-imidazole-4,5-dicarboxamide] were 90 nM, 200 nM and 27000 nM.
For `O=C(Nc1ccc(NC(=O)c2[nH]cnc2C(=O)NCCN2CCCCC2)cc1F)c1ccc(F)cc1Cl` [Example 74, N^5-{4-[(2-chloro-4-fluorobenzoyl)amino]-3-fluorophenyl}-N^4-[2-(piperidin-1-yl)ethyl]-1H-imidazole-4,5-dicarboxamide], the IC50 against TNKS1 amounted to 2 nM; in experiment [1] it was 70 nM; in experiment [2], 14000 nM.
For `O=C(Nc1ccc(NC(=O)c2nc[nH]c2C(=O)NCCN2CCC(F)(F)CC2)cc1)c1ccc(F)cc1Cl` [Example 224, N^4-{4-[(2-chloro-4-fluorobenzoyl)amino]phenyl}-N^5-[2-(4,4-difluoropiperidin-1-yl)ethyl]-1H-imidazole-4,5-dicarboxamide] the same measures were 260 nM, 1250 nM and 27000 nM.
